From US6159700A, “Method of finding agonist and antagonist to human and rat GPR14” (SmithKline Beecham Corporation, priority 1999, dated 2000) come the findings set out here.

Series [1] addresses T1, rat GPR14 receptor (Rattus norvegicus, UniProt P49684).
T1 sequence (P49684 1-386): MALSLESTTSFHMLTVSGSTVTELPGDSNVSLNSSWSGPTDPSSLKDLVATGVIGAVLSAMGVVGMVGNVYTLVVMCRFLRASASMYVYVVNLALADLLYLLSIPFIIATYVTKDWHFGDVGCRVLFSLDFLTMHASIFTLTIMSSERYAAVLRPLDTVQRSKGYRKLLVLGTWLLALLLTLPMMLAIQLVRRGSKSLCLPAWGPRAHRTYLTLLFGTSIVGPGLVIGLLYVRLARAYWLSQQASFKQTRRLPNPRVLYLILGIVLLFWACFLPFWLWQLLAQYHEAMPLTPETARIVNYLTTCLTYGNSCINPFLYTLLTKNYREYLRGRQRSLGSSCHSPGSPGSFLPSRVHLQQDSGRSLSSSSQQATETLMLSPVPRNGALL
The series can be described thus: Binding to rat GPR14 receptor. The note with it: compared with Human GPR14. From the text: Ligand binding assays provide a direct method for ascertaining receptor pharmacology and are adaptable to a high throughput format. The purified ligand for a receptor is radiolabeled to high specific activity (50-2000 Ci/mmol) for binding studies. […] Assay conditions for buffers, ions, pH and other modulators such as nucleotides are optimized to establish a workable signal to noise ratio for both membrane and whole cell receptor sources. For these assays, specific receptor binding is defined as total associated radioactivity minus the radioactivity measured in the presence of an excess of unlabeled competing ligand. Where possible, more than one competing ligand is used to define residual nonspecific binding.

The nature of the next series: Vasoconstrictor potency. The settings on record: mammalian.
The next series relates to intact primate. The series can be described thus: Effects in the intact primate. The series is classed as in vivo.
For another series, the target named is T2, Human GPR14 (human).
T2 chain: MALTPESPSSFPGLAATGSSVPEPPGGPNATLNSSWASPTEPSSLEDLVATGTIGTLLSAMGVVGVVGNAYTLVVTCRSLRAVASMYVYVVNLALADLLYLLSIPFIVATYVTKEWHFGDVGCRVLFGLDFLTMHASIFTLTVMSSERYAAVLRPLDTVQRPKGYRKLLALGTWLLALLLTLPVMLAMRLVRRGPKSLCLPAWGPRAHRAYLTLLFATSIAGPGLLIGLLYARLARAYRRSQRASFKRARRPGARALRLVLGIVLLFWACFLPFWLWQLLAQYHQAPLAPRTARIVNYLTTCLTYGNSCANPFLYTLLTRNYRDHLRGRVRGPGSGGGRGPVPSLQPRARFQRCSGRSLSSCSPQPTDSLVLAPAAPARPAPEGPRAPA
The series can be described thus: cell-based or functional assay.

The target in series [2] is T3, Rat GPR14 receptor (rat).
T3 chain: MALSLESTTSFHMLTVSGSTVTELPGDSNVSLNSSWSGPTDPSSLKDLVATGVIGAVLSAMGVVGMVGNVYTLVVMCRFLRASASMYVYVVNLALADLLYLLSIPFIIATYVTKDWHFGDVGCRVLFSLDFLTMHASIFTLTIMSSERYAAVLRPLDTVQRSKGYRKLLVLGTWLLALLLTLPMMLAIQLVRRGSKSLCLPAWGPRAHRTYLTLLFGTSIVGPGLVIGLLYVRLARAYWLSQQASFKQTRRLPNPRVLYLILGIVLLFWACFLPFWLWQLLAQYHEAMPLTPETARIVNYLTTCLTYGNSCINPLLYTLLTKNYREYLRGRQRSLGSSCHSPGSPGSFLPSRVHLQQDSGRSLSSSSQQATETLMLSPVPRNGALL
The series can be described thus: cell-based or functional assay.

Bridge positions count the residues as written; N and C are the ends. Peptide text beside a SMILES is read from it.

With `CC(C)[C@H](NC(=O)[C@@H]1CSSC[C@H](NC(=O)[C@H](CC(=O)O)NC(=O)[C@H](C)NC(=O)[C@@H](NC(=O)CNC(=O)[C@H](C)N)[C@@H](C)O)C(=O)N[C@@H](Cc2ccccc2)C(=O)N[C@@H](Cc2c[nH]c3ccccc23)C(=O)N[C@@H](CCCCN)C(=O)N[C@@H](Cc2ccc(O)cc2)C(=O)N1)C(=O)O` [fish urotensin II] (H-AGTADCFWKYCV-OH; disulfide 6-11 (inferred); N-terminus and C-terminus assumed), the “binding to rat GPR14 receptor” value on rat GPR14 receptor [1] is reported as “binds equally well to rat GPR14 receptor”.

Consider `CC(C)[C@H](NC(=O)[C@@H]1CSSC[C@H](NC(=O)[C@H](CC(=O)O)NC(=O)[C@@H]2CCCN2C(=O)[C@@H](NC(=O)[C@@H](N)CCC(=O)O)[C@@H](C)O)C(=O)N[C@@H](Cc2ccccc2)C(=O)N[C@@H](Cc2c[nH]c3ccccc23)C(=O)N[C@@H](CCCCN)C(=O)N[C@@H](Cc2ccc(O)cc2)C(=O)N1)C(=O)O` [human urotensin II], for which, in the series “Vasoconstrictor potency”, the vasoconstrictor potency entry is listed as “most potent mammalian vasoconstrictor identified to date”. Also, at rat GPR14 receptor [1], the “binding to rat GPR14 receptor” value is “binds equally well to rat GPR14 receptor”. The “cardiovascular effects in vivo” value with intact primate is “induces systemic vasoconstriction, myocardial contractile dysfunction and, ultimately, lethal arrhythmias”.

B1: Fish urotensin II (peptide)
peptide: AGTADCFWKYCV
As to B1, the results for the “EC50 of calcium mobilization (FLIPR)” value with Human GPR14 and in the series with Rat GPR14 receptor [2] were 0.5 nM and 0.8 nM, respectively.

B2: Human urotensin II (peptide)
peptide: ETPDCFWKYCV
In the case of B2, the “EC50 of calcium mobilization” value with Human GPR14 was 0.1 to 0.2 nM.
